# “Also recorded” adds a separate entry of the source.
# Experiments:
# [1] = Tissue distribution of α-MG (tissue-to-plasma ratios) after intravenous and oral administration; type: in vivo, mice
# Description: The surgical procedures and administration of α-MG were conducted according to a previously reported method, [12], [31]. At 30 and 180 min after intravenous and oral administration of α-MG at doses of 10 mg/kg, as much blood as possible was collected via the carotid artery and each mouse was then sacrificed by cervical dislocation. Each liver, spleen, stomach, small intestine, large intestine, mesentery, kidney, fat, muscle, heart, lung, and brain was excised, weighted and homogenized with a volume of distilled water at 4 times the each organ. After centrifugation for 10 min, the supernatant was collected and all samples stored at –80°C until required.
# [2] = Tentative identification of metabolites from α-MG by UPLC-MS/MS; type: in vivo; conditions: mice after intravenous and oral α-MG; S9 fractions after 30-min incubation
# Excerpt: Probable metabolites of α-MG were identified using the simultaneous full scan MS, MRM and MS/MS modes in a Waters UPLC-XEVO TQ system (Waters Corporation, Milford, USA) to confirm the structures of any metabolites. […] Structural elucidation of the metabolites was based on the fragmentation patterns of parent ion from the MS/MS mode at a collision energy of 10 to 20 eV generating daughter ions. The mass transitions for α-MG was m/z 411.21 → 354.85 (collision energy of 20 eV and collision cell exit potential of 25 eV, respectively). The unknown masses were further analyzed in MS/MS (daughter scan) mode with the electrospray ionization interface used to generate positive and negative ions at a capillary voltage of 3.0 kV, source temperature of 350°C and desolvation gas temperature of 650°C. The MRM methods for identification of possible metabolites generated by phase I and/or II reactions were included.
# These compounds were separated on a reversed-phase C18 column (XSELECT CSH, 2.1 mm × 100 mm i.d., 1.7-μm particle size; Waters, Ireland) with a flow rate of 0.35 mL/min. The mobile phase composition was started at 95: 5 (v/v) of distilled water containing 0.1% formic acid (A) and acetonitrile (B) and gradually changed to 35: 65 (v/v) for 30 min, and then switched back to 95: 5 (v/v) for 40 min.
# [3] = Mouse plasma protein binding using an equilibrium dialysis technique; type: in vitro ADME; conditions: pH 7.4, fresh mouse plasma
# Description: A 250 μL of mouse plasma was dialyzed against 250 μL of isotonic Sørensen phosphate buffer with pH 7.4 containing 3% (w/v) dextran (‘the buffer’) in a dialysis cell using a Spectra/Por 4 membrane (molecular weight cutoff of 12000–14000; Spectrum Medical Industries). α-MG was spiked into the plasma compartment to produce an initial concentration of 1 or 20 μg/mL and all other procedures followed the reported method.
# [4] = Metabolism of α-MG in in vitro S9 fractions of other tissues; type: in vitro ADME, mice; conditions: other tissues studied, spiked 1 and 20 μg/mL
# Excerpt: (§1) The procedures for using S9 fractions from various tissues were similar those already reported. Each liver, stomach, small intestine, large intestine, lung, heart, kidney, fat, mesentery, muscle, and brain was excised after cervical dislocation (n = 6). Each tissue sample was rinsed with cold 0.9% NaCl-injectable solution, blotted dry with tissue paper and weighed. Then each tissue was homogenized with a volume of 0.25 M sucrose at 4 times of each tissue. Metabolic activity was initiated by adding a 100 μL aliquot of the 9000 × g supernatant fraction (S9) of each tissue to a 135 μL of Tris-buffer (pH 7.4), 5 μL of 0.9% NaCl-injectable solution with 1 or 20 μg/mL α-MG as a final concentration, 5 μL (1 mM) of NADPH and 5 μL (3.3 mM) of UDPGA. A 250 μL aliquot of acetonitrile (containing 1 μg/mL of the IS) was added after a 30 min incubation in a thermomixer (37°C and 500 opm) to terminate the enzyme activity. The amount of remaining α-MG in the S9 fraction of each tissue was determined using the HPLC-MS/MS analytical method.
# [5] = tested on: Caco2 cell line; parameters: method as in PMID 19415666; conditions: cited from earlier work
# [6] = Metabolism of α-MG in in vitro S9 fraction of small intestine; type: in vitro ADME, mice; conditions: 30 min incubation, NADPH and UDPGA
# Excerpt: as §1
structure (smiles),measurement,setting,value
"COc1c(O)cc2oc3cc(O)c(CC=C(C)C)c(O)c3c(=O)c2c1CC=C(C)C [α-MG, α-Mangostin]",tissue-to-plasma (T/P) ratio,"[1]; intravenous 10 mg/kg, kidney, at 30 min",greater than unity
same,tissue-to-plasma (T/P) ratio,"[1]; intravenous 10 mg/kg, large intestine and fat, at 180 min",greater than unity
same,tissue-to-plasma (T/P) ratio,"[1]; intravenous 10 mg/kg, liver, small intestine and lung, at 30 and 180 min",greater than unity
same,tissue-to-plasma (T/P) ratio,"[1]; oral 10 mg/kg, all tissues studied except the brain, at 30 and 180 min, 10 mg/kg",greater than unity; also recorded: above unity
same,Source (samples in which detected),[2],"plasma, urine, feces, liver, small intestine, S9 fractions of liver and small intestine"
same,fraction unbound at 1 μg/mL,[3]; 1 μg/mL,0.082
same,fraction unbound at 20 μg/mL,[3]; 20 μg/mL,0.107
same,metabolic activity in S9 fractions,[4],almost negligible metabolic activities
same,absorption in the Caco2 cell line,[5],low absorption
same,disappearance of spiked α-MG,"[6]; small intestine S9, 1 μg/mL",34.8%
same,disappearance of spiked α-MG,"[6]; small intestine S9, 20 μg/mL",36.2%
